Laboratory results: paper PMC7504770, “Mechanistic Insights into the Chaperoning of Human Lysosomal-Galactosidase Activity: Highly Functionalized Aminocyclopentanes and C-5a-Substituted Derivatives of 4-epi-Isofagomine” (Molecules, 2020)

Experiments:
[1] = biological target: T1, β-glucosidase/β-galactosidase from Agrobacterium sp. (Abg, GH1) (Agrobacterium sp., UniProt P12614); settings: read-out: Ki Abg (β-Glc/Gal) (GH1); cited from earlier work
T1 sequence (P12614 1-459): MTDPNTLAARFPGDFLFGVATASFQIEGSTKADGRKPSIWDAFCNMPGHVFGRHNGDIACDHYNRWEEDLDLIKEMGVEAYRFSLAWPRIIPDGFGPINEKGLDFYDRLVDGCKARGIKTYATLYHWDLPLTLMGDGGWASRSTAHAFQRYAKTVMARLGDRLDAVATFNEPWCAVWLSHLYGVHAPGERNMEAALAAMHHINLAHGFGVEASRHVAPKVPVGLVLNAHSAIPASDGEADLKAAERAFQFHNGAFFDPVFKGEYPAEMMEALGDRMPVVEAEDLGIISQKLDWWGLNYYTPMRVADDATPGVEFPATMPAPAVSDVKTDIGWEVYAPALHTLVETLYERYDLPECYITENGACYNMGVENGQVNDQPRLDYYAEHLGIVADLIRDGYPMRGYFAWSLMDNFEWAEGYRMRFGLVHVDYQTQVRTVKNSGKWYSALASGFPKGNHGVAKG

[2] = biological target: lac Z β-galactosidase from E. coli (GH2) (Escherichia coli, UniProt P00722); settings: read-out: Ki E. coli (β-Gal) (GH2); cited from earlier work
Chain of lac Z β-galactosidase from E. coli (GH2) (P00722 2-1024): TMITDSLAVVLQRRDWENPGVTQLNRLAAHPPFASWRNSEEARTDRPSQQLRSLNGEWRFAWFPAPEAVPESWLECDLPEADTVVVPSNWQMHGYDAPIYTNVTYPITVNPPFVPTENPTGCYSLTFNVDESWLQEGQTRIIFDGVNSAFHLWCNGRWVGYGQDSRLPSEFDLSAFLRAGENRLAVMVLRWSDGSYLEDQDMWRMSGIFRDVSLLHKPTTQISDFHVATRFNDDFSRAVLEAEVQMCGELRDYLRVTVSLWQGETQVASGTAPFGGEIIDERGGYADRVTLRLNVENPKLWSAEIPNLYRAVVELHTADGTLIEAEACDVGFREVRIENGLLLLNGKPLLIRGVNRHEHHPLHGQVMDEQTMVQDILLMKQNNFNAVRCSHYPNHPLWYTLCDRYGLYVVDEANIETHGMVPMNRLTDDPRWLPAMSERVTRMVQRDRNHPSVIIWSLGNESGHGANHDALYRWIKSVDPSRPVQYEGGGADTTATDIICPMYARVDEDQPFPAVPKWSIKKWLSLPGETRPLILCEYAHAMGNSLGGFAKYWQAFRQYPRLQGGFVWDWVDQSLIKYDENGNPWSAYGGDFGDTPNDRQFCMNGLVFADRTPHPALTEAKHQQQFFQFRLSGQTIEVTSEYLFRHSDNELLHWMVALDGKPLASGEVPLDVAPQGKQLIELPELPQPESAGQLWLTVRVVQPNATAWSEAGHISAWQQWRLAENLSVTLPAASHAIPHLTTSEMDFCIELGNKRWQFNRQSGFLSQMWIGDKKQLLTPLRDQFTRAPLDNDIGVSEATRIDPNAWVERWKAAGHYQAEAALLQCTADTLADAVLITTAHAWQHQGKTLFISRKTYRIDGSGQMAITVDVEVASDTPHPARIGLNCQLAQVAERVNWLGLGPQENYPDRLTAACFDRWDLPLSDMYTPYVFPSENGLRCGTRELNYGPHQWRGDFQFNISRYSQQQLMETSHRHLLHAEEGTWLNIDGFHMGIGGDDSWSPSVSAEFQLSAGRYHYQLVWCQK

[3] = biological target: T2, recombinant human lysosomal β-glucocerebrosidase (GCase, GH30) (Homo sapiens, UniProt P04062); settings: read-out: Ki GCase (β-Glc) (GH30); cited from earlier work
T2 sequence (P04062 40-536): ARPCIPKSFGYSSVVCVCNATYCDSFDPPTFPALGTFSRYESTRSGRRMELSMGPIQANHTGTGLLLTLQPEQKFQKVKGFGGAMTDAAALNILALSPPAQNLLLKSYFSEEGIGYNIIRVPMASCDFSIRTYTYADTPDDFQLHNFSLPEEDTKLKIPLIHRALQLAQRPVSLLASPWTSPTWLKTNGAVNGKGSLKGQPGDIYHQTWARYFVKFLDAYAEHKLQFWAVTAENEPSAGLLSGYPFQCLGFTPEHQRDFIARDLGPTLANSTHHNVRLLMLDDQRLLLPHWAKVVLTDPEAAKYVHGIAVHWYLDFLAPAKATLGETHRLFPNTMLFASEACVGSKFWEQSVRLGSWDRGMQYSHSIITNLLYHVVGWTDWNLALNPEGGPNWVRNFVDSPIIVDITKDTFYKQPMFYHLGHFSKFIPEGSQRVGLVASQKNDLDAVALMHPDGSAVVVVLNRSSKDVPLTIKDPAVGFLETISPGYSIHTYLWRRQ

[4] = tested on: human skin fibroblasts (R201C); assay: Cell viability and growth of treated fibroblasts; type: cell-based; settings: for cell growth at higher concentrations: concentrations higher than 10 µM, over the incubation time; for cell viability at more than 100 µM: concentrations of more than 100 µM; for influence on cell viability: incubation of the cells up to 10 µM
Experimental: Cell lines from one GM1-Gangliosidosis-patient (R201C) and one WT, were exposed to compounds 22, 31, and 37, for evaluation of their chaperone effects.
Human skin fibroblasts were grown in minimal essential medium (MEM) with Earle’s Salts (Sigma Aldrich, St. Louis, MO, USA) containing 10% fetal bovine serum, 400 µM L-glutamine, and 50 µg/mL gentamycin at 37 °C and 5% CO2. All cells used in this study were between the third and nineteenth passages.
Fibroblasts were grown to semi-confluency in 6-well plates. Particular chaperone was added to the culture medium at following concentrations: 100–0.02 µmol. Cells were incubated for four additional days at 37 °C. Cells were harvested by scraping and prepared for β-galactosidase and β-hexosaminidase assays as described above.

[5] = biological target: T3, β-galactosidase from bovine liver (GH35) (Bos taurus, UniProt Q58D55); settings: read-out: Ki Bovine liver (β-Gal) (GH35); cited from earlier work
T3 construct: Bovine liver β-galactosidase; from tissue; host or cells: bovine liver
T3 sequence (Q58D55 28-653): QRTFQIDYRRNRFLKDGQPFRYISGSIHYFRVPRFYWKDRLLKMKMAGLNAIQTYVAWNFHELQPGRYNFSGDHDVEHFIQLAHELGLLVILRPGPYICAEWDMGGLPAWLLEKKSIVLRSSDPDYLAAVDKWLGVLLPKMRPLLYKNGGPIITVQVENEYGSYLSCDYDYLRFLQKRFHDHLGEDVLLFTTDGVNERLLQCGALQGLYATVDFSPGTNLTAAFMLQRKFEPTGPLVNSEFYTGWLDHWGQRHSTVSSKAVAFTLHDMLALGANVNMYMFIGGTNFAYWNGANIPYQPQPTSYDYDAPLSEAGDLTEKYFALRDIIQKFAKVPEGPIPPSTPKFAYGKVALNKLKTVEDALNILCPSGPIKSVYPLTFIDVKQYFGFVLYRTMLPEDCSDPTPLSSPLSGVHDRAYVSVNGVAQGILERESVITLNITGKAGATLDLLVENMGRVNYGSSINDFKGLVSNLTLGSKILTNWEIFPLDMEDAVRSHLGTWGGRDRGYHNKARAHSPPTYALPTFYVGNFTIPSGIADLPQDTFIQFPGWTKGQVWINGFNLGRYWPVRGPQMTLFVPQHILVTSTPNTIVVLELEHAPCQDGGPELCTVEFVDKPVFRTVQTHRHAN

Row | SMILES | Ki [1] [µM] | Ki [2] [µM] | Ki [3] [µM] | cell growth at higher concentrations [4] | cell viability at more than 100 µM [4] | influence on cell viability [4] | Ki [5] [µM]
1 | CN(C)c1cccc2c(S(=O)(=O)NCCCCCCN[C@H]3[C@H](O)[C@@H](O)[C@@H](O)[C@H]3CO)cccc12 [Compound 17] | 0.0012 | 0.0101 | 0.0193 | – | – | – | –
2 | CN(C)c1cccc2c(S(=O)(=O)NCCCCCCN[C@H]3C[C@@H](O)[C@@H](O)[C@H]3CO)cccc12 [Compound 31, (1R,2S,3R,4S)-3-Hydroxymethyl-4-(6′-dansylaminohexylamino)cyclopentane-1,2-diol] | – | – | – | complete arrest of cell growth | dramatic loss | no notable influence | –
3 | CN(C)c1cccc2c(S(=O)(=O)NCCCCCC[C@@H]3NC[C@@H](O)[C@@H](O)[C@H]3CO)cccc12 [Compound 14] | 0.0175 | 0.0021 | 1.2 | – | – | – | 0.0014
4 | CN(C)c1cccc2c(S(=O)(=O)NCCCCCCN[C@H]3[C@H](F)[C@@H](O)[C@@H](O)[C@H]3CO)cccc12 [Compound 37, (1S,2S,3S,4R,5R)-4-(6′-Dansylaminohexyl)amino-3-fluoro-5-hydroxymethylcyclopentane-1,2-diol] | – | – | – | complete arrest of cell growth | dramatic loss | no notable influence | –
5 | CCCCCCCCNC1C=C(CO)C(O)C(O)C1O (stereo not drawn) [Compound 1, N-octyl-epi-valienamine] | – | – | – | – | – | – | 0.87
